One compound from US20220000786A1, “PHARMACEUTICAL PREPARATION” (KOWA COMPANY, LTD., priority 2018, published 2022) can be followed below.

Each structure is given as a SMILES string.

The data set can be described thus: Examination on stability: storage at 40° C. and 75% RH for 1 month, state of sample and composition changes. Type of data set: physicochemical. How it is done:
Samples 1-1 to 1-4 as shown below were prepared and stored at 40° C. and […] relative humidity (RH) for 1 month.
Pemafibrate as it was placed in a glass vessel with a lid opened, and labeled as Sample 1-1.
Aminoalkyl methacrylate copolymer E (EUDRAGIT EPO: Evonick Rohm GmbH) as it was placed in a glass vessel with a lid opened, and labeled as Sample 1-2.
Aminoalkyl methacrylate copolymer E (EUDRAGIT EPO: Evonick Rohm GmbH) was mixed with pemafibrate in a ratio of 1 part by mass to 1 part by mass of pemafibrate to obtain a mixture. The mixture was placed in a glass vessel with a lid opened, and labeled as Sample 1-3.
Aminoalkyl methacrylate copolymer E (EUDRAGIT EPO: Evonick Röhm GmbH) was mixed with pemafibrate in a ratio of 1 part by mass to 1 part by mass of pemafibrate to obtain a mixture. The mixture was taken in an amount of 0.25 g into a glass bottle (a bottle No. 2K, manufactured by ISOYA GLASS INDUSTRY) and closed with a lid, and labeled as Sample 1-4.

Consider `CC[C@@H](Oc1cccc(CN(CCCOc2ccc(OC)cc2)c2nc3ccccc3o2)c1)C(=O)O` [Sample 1-1, (2R)-2-[3-([1,3-Benzoxazol-2-yl[3-(4-methoxyphenoxy)propyl]amino]methyl)phenoxy]butanoic acid], for which the “Change of state / presence or absence of composition changes after storage” value (1 month, start of storage compared with 1 month) was “maintained the same state”. In addition, for the setting “after storage for 1 month, glass vessel with lid opened (1-1 to 1-3) or closed glass bottle (1-4)”, the “State of mixture, 1 month later” value was “White powder”. The “State of mixture, immediately after the start of storage” value (start of storage, glass vessel with lid opened (1-1 to 1-3) or closed glass bottle (1-4)) is “White powder”.
